Results: patent US20190246658A1, “METHODS OF HANDLING PAPAYA” (AGROFRESH INC., priority 2013, published 2019)

Legend:
[1] = system: Papayas ‘Golden’; assay: Example 1: percentage of fruits with ideal internal pulp firmness (2.5-7.0 lbf); type: in vivo, papaya; conditions: 100 ppb of MCP, ideal = between 2.5 and 7.0 lbf
Experimental: (§1) Papayas ‘Golden’ were harvested in Linhares—Espírito Santo—Brazil. The harvested fruits were packed in MAP Bags and put in cardboard boxes.
(§2) The appropriate weight of papayas was placed in each bag after harvest. Bags were placed in the same cardboard boxes used to export the fruits. Papayas then were cold stored at (11° C.) at the Laboratory.
(§3) The Test Protocol that was used was as follows. 36 MAP bags were packed. Each bag held approximately 3.8 kg (8.4 lb) of papayas. One such bag was packed in each cardboard box. Total weight of papayas in MAP bags was approximately 137 kg. Approximately 91 kg of papayas were placed into cardboard boxes identical to those used for the MAP bags.
(§4) The MAP-packaged papayas were packaged as follows: Nine fruits, approximately 3.8 kg were carefully placed into microperforated bags, and the bags were sealed by twisting the open side of the bag, folding down the twisted end, and placing a rubber band around the twisted and folded end of the bag.
(§5) All papayas were kept at cold temperature (11° C.) during 27 days and after that the fruits (packed in MAP bags or not) were put in room temperature (22° C.) during 8 days.
(§6) One day after harvest, when the papayas had around 25 lbf of average firmness, each treatment set was marked, placed in a hermetical chamber at cold temperature (11° C.). All chambers were of equal size and packed the same way. Treatment was for 12 hours. In the chambers for the 3 “MCP” treatment groups, at the beginning of the treatment period, SmartFresh™ were placed in the chamber. The amount of SmartFresh™ was chosen to achieve the indicated concentration of 1-methylcyclopropene in the atmosphere of the chamber.
(§7) For the Pulp Firmness evaluation two measurements where done, one for External Firmness and another for Internal Firmness. For External Firmness, the papayas had the skin removed with a peeler and the pulp firmness was measured with a Firmness Texture Analyzer (FTA) with a probe of 8 mm. For Internal Firmness, the papayas were cut transversally and a measurement close to the center of the fruit was taken with the FTA.
The desirable internal pulp firmness for consumption of papayas is between 2.5 and 7.0 lbf. The percentage of fruits with internal pulp firmness between 2.5 and 7.0 lbf was calculated.

[2] = system: Papayas ‘Golden’; assay: Example 1: pulp firmness, external (FTA, 8 mm probe); type: in vivo, papaya; conditions: 100 ppb of MCP
Experimental: as §1, §2, §3, §4, §5, §6
(§8) Evaluation for skin color and firmness was as follows. Day “zero” was the day the papayas were removed from the chamber and placed in storage.
as §7

[3] = system: Papayas ‘Golden’; assay: Example 2 (yellow stage): pulp firmness, internal; type: in vivo, papaya; conditions: 500 ppb of MCP
Experimental: (§9) A similar test to Example 1 but papayas are tested during their yellow stage. Papayas ‘Golden’ were harvested in Linhares—Espírito Santo—Brazil. The fruits were packed in MAP Bags and put in cardboard boxes.
(§10) The fruits were first left at room temperature during 3 days to reach yellow maturity stage.
(§11) After that the appropriate weight of papayas was placed in each bag after harvest. Bags were placed in the same cardboard boxes used to export the fruits. Papayas then were cold stored at (11° C.) at the Laboratory.
(§12) The Test Protocol that was used was as follows. 18 MAP bags were packed. Each bag held approximately 3.8 kg (8.4 lb) of papayas. One such bag was packed in each cardboard box. Total weight of papayas in MAP bags was approximately 68 kg. Approximately 68 kg of papayas were placed into cardboard boxes identical to those used for the MAP bags.
as §4
(§13) All papayas were kept at cold temperature (11° C.) during 26 days and after that the fruits (packed in MAP bags or not) were put in room temperature (22° C.) during 8 days.
(§14) After the 3 days for maturation at room temperature, when the papayas had around 5 lbf of average firmness, each treatment set was marked, placed in a hermetical chamber at cold temperature (11° C.). All chambers were of equal size and packed the same way. Treatment was for 12 hr. In the chambers for the 2 “MCP” treatment groups, at the beginning of the treatment period, SmartFresh™ were placed in the chamber. The amount of SmartFresh™ was chosen to achieve the indicated concentration of 1-methylcyclopropene in the atmosphere of the chamber.
as §8
For the Pulp Firmness evaluation two measurements were done, one for External Firmness and another for Internal Firmness. For External Firmness, the papayas had the skin removed with a peeler and the pulp firmness was measured with a Firmness Texture Analyzer (FTA) with a probe of 8 mm. For Internal Firmness, the papayas were cut transversally and a measurement close to the center of the fruit was taken with the FTA.

[4] = system: Papayas ‘Golden’; assay: Example 2 (yellow stage): papaya skin color rating; type: in vivo; conditions: for Skin color ratings: 500 ppb of MCP, scale 1 green to 5 yellow
Experimental: as §9, §10, §11, §12, §4, §13, §14, §8
The Papaya Skin Color was rated with the following scale: 1: green; 2: approximately 25%; 3: approximately 50% colored; 4: approximately 75% colored; 5: yellow.

[5] = system: Papayas ‘Golden’; assay: Example 1: pulp firmness, internal (FTA); type: in vivo, papaya; conditions: for Pulp Firmness - Internal: 100 ppb of MCP
Experimental: as §1, §2, §3, §4, §5, §6, §8, §7

[6] = MAP bag, 27 days at 11° C. then 0 days @ 22° C.
[7] = MAP bag, 27 days at 11° C. then 4 days @ 22° C.
[8] = MAP bag, 27 days at 11° C. then 8 days @ 22° C.
[9] = No Bag, 27 days at 11° C. then 0 days @ 22° C.
[10] = No Bag, 27 days at 11° C. then 4 days @ 22° C.
[11] = No Bag, 27 days at 11° C. then 8 days @ 22° C.
[12] = MAP bag, 26 days at 11° C. then 0 days @ 22° C.
[13] = MAP bag, 26 days at 11° C. then 4 days @ 22° C.
[14] = MAP bag, 26 days at 11° C. then 8 days @ 22° C.
[15] = No Bag, 26 days at 11° C. then 0 days @ 22° C.
[16] = No Bag, 26 days at 11° C. then 4 days @ 22° C.
[17] = No Bag, 26 days at 11° C. then 8 days @ 22° C.

CC1=CC1 [MCP, 1-methylcyclopropene]
Percentage of fruits with ideal internal pulp firmness [1, 6]: 52.38% | Percentage of fruits with ideal internal pulp firmness [1, 7]: 44.44% | Percentage of fruits with ideal internal pulp firmness [1, 8]: 13.88% | Percentage of fruits with ideal internal pulp firmness [1, 9]: 1.19% | Percentage of fruits with ideal internal pulp firmness [1, 10]: 11.11% | Percentage of fruits with ideal internal pulp firmness [1, 11]: 58.33% | Pulp Firmness - External [2, 6]: 17.1 lbf | Pulp Firmness - External [2, 7]: 17.0 lbf | Pulp Firmness - External [2, 8]: 6.2 lbf | Pulp Firmness - External [2, 9]: 25.0 lbf | Pulp Firmness - External [2, 10]: 23.4 lbf | Pulp Firmness - External [2, 11]: 7.8 lbf | Pulp Firmness - Internal [3, 12]: 1.20 lbf | Pulp Firmness - Internal [3, 13]: 0.92 lbf | Pulp Firmness - Internal [3, 14]: 0.88 lbf | Pulp Firmness - Internal [3, 15]: 1.21 lbf | Pulp Firmness - Internal [3, 16]: 1.55 lbf | Pulp Firmness - Internal [3, 17]: 0.95 lbf | papayas color, in words ([4]; 1-MCP alone (no MAP)): did not hold the papayas color | Skin color ratings [4, 12]: 2.18 | Skin color ratings [4, 13]: 3.62 | Skin color ratings [4, 14]: 4.88 | Skin color ratings [4, 15]: 2.70 | Skin color ratings [4, 16]: 4.91 | Skin color ratings [4, 17]: 5.00 | internal firmness during shelf-life, in words ([5]; 1-MCP alone (no MAP)): too high internal firmness | Pulp Firmness - Internal [5, 6]: 3.3 lbf | Pulp Firmness - Internal [5, 7]: 3.2 lbf | Pulp Firmness - Internal [5, 8]: 1.5 lbf | Pulp Firmness - Internal [5, 9]: 16.9 lbf | Pulp Firmness - Internal [5, 10]: 12.2 lbf | Pulp Firmness - Internal [5, 11]: 3.2 lbf
